Reference: ChEMBL document CHEMBL4308841, “Synthesis, in vitro antiproliferative activity, and kinase inhibitory effects of pyrazole-containing diarylureas and diarylamides” (Eur J Med Chem, 2018)

What was measured:
CCRF-CEM = experiment: Growth inhibition of human CCRF-CEM cells incubated for 48 hrs by sulforhodamine B assay; type: functional, cell-based
HOP-62 = experiment: Growth inhibition of human HOP62 cells incubated for 48 hrs by sulforhodamine B assay; type: functional, cell-based; conditions: HOP-62, 48 h
NCI-H460 [1] = experiment: Growth inhibition of human NCI-H460 cells incubated for 48 hrs by sulforhodamine B assay; type: functional, cell-based; conditions: NCI-H460, 48 h
HCT-15 = experiment: Growth inhibition of human HCT15 cells incubated for 48 hrs by sulforhodamine B assay; type: functional, cell-based; conditions: HCT-15, 48 h
SK-MEL-5 = experiment: Growth inhibition of human SK-MEL-5 cells incubated for 48 hrs by sulforhodamine B assay; type: functional, cell-based; conditions: SK-MEL-5, 48 h
MCF7 [2] = experiment: Growth inhibition of human MCF7 cells incubated for 48 hrs by sulforhodamine B assay; type: functional, cell-based; conditions: MCF7, 48 h
MDA-MB-468 = experiment: Growth inhibition of human MDA-MB-468 cells incubated for 48 hrs by sulforhodamine B assay; type: functional, cell-based; conditions: MDA-MB-468, 48 h
A549 [3] = experiment: Growth inhibition of human A549/ATCC cells assessed as cell growth at 0.01 uM incubated for 48 hrs by sulforhodamine B assay relative to control; type: functional; conditions: A549, 48 h, read-out: Activity
NCI-H226 = experiment: Growth inhibition of human NCI-H226 cells assessed as cell growth at 0.01 uM incubated for 48 hrs by sulforhodamine B assay relative to control; type: functional; conditions: NCI-H226, 48 h, read-out: Activity
M14 = experiment: Growth inhibition of human M14 cells assessed as cell growth at 0.01 uM incubated for 48 hrs by sulforhodamine B assay relative to control; type: functional; conditions: M14, 48 h, read-out: Activity
OVCAR-4 = experiment: Growth inhibition of human OVCAR4 cells assessed as cell growth at 0.01 uM incubated for 48 hrs by sulforhodamine B assay relative to control; type: functional; conditions: OVCAR-4, 48 h, read-out: Activity
ACHN [4] = experiment: Growth inhibition of human ACHN cells assessed as cell growth at 0.01 uM incubated for 48 hrs by sulforhodamine B assay relative to control; type: functional; conditions: read-out: Activity
CAKI-1 = experiment: Growth inhibition of human Caki1 cells assessed as cell growth at 0.01 uM incubated for 48 hrs by sulforhodamine B assay relative to control; type: functional; conditions: CAKI-1, 48 h, read-out: Activity
UO-31 = experiment: Growth inhibition of human UO31 cells assessed as cell growth at 0.01 uM incubated for 48 hrs by sulforhodamine B assay relative to control; type: functional; conditions: UO-31, 48 h, read-out: Activity
PC-3 [5] = experiment: Growth inhibition of human PC3 cells assessed as cell growth at 0.01 uM incubated for 48 hrs by sulforhodamine B assay relative to control; type: functional; conditions: PC-3, 48 h, read-out: Activity
DU-145 = experiment: Growth inhibition of human DU145 cells assessed as cell growth at 0.01 uM incubated for 48 hrs by sulforhodamine B assay relative to control; type: functional; conditions: DU-145, 48 h, read-out: Activity
Hs-578T = experiment: Growth inhibition of human Hs578T cells assessed as cell growth at 0.01 uM incubated for 48 hrs by sulforhodamine B assay relative to control; type: functional; conditions: read-out: Activity
SNB-75 = experiment: Growth inhibition of human SNB75 cells assessed as cell growth at 0.1 uM incubated for 48 hrs by sulforhodamine B assay relative to control; type: functional; conditions: SNB-75, 48 h, read-out: Activity
UACC-62 = experiment: Growth inhibition of human UACC62 cells assessed as cell growth at 0.1 uM incubated for 48 hrs by sulforhodamine B assay relative to control; type: functional; conditions: UACC-62, 48 h, read-out: Activity
786-0 = experiment: Growth inhibition of human 786-0 cells assessed as cell growth at 0.1 uM incubated for 48 hrs by sulforhodamine B assay relative to control; type: functional; conditions: 786-0, 48 h, read-out: Activity
PC-3 [6] = experiment: Growth inhibition of human PC3 cells assessed as cell growth at 0.1 uM incubated for 48 hrs by sulforhodamine B assay relative to control; type: functional; conditions: PC-3, 48 h, read-out: Activity
HL-60(TB) = experiment: Growth inhibition of human HL-60(TB) cells assessed as cell growth at 1 uM incubated for 48 hrs by sulforhodamine B assay relative to control; type: functional; conditions: HL-60, 48 h, read-out: Activity
A549 [7] = experiment: Growth inhibition of human A549/ATCC cells assessed as cell growth at 1 uM incubated for 48 hrs by sulforhodamine B assay relative to control; type: functional; conditions: A549, 48 h, read-out: Activity
NCI-H460 [8] = experiment: Growth inhibition of human NCI-H460 cells assessed as cell growth at 1 uM incubated for 48 hrs by sulforhodamine B assay relative to control; type: functional; conditions: NCI-H460, 48 h, read-out: Activity
HCC 2998 = experiment: Growth inhibition of human HCC2998 cells assessed as cell growth at 1 uM incubated for 48 hrs by sulforhodamine B assay relative to control; type: functional; conditions: HCC 2998, 48 h, read-out: Activity
ACHN [9] = experiment: Growth inhibition of human ACHN cells assessed as cell growth at 1 uM incubated for 48 hrs by sulforhodamine B assay relative to control; type: functional; conditions: read-out: Activity
MCF7 [10] = experiment: Growth inhibition of human MCF7 cells assessed as cell growth at 1 uM incubated for 48 hrs by sulforhodamine B assay relative to control; type: functional; conditions: MCF7, 48 h, read-out: Activity
BT-549 = experiment: Growth inhibition of human BT549 cells assessed as cell growth at 1 uM incubated for 48 hrs by sulforhodamine B assay relative to control; type: functional; conditions: BT-549, 48 h, read-out: Activity
NCI-H23 = experiment: Growth inhibition of human NCI-H23 cells assessed as cell growth at 100 uM incubated for 48 hrs by sulforhodamine B assay relative to control; type: functional; conditions: NCI-H23, 48 h, read-out: Activity
[11] = read-out: LC50 (the source's name)
[12] = read-out: pLC50 (the source's name) (converted)

COc1cc(Cl)cc(-c2nn(-c3cccc(NC(=O)Nc4ccc(Cl)c(C(F)(F)F)c4)c3)cc2-c2ccncc2)c1
GI50 (CCRF-CEM; read-out: GI50): 613 nM | CC50 (CCRF-CEM; [11]): > 100 µM | TGI (CCRF-CEM; read-out: TGI): 35.5 µM | CC50 (CCRF-CEM; [12]): > 100 µM | GI50 (HOP-62; read-out: GI50): 2120 nM | CC50 (HOP-62; [11]): > 100 µM | TGI (HOP-62; read-out: TGI): 63.2 µM | GI50 (HOP-62; read-out: pGI50 (converted)): 2140 nM | CC50 (HOP-62; [12]): > 100 µM | TGI (HOP-62; read-out: pTGI (converted)): 6.31 µM | GI50 (NCI-H460 [1]; read-out: GI50): 770 nM | CC50 (NCI-H460 [1]; [11]): 4.48 µM | TGI (NCI-H460 [1]; read-out: TGI): 40 µM | CC50 (NCI-H460 [1]; [12]): 44.7 µM | GI50 (HCT-15; read-out: GI50): 493 nM | CC50 (HCT-15; [11]): 6.46 µM | TGI (HCT-15; read-out: TGI): 24 µM | GI50 (HCT-15; read-out: pGI50 (converted)): 490 nM | CC50 (HCT-15; [12]): 8.51 µM | TGI (HCT-15; read-out: pTGI (converted)): 2.4 µM | GI50 (SK-MEL-5; read-out: GI50): 1540 nM | CC50 (SK-MEL-5; [11]): 5.58 µM | TGI (SK-MEL-5; read-out: TGI): 29.3 µM | GI50 (SK-MEL-5; read-out: pGI50 (converted)): 1550 nM | CC50 (SK-MEL-5; [12]): 5.62 µM | TGI (SK-MEL-5; read-out: pTGI (converted)): 8.32 µM | GI50 (MCF7 [2]; read-out: GI50): 1010 nM | LC50 (MCF7 [2]; read-out: LC50): > 100 µM | TGI (MCF7 [2]; read-out: TGI): 11 µM | GI50 (MCF7 [2]; read-out: pGI50 (converted)): 1020 nM | LC50 (MCF7 [2]; read-out: pLC50 (converted)): > 100 µM | TGI (MCF7 [2]; read-out: pTGI (converted)): 11 µM | IC50 (MDA-MB-468): 990 nM | GI50 (MDA-MB-468; read-out: GI50): 900 nM | CC50 (MDA-MB-468; [11]): > 100 µM | TGI (MDA-MB-468; read-out: TGI): 54.7 µM | GI50 (MDA-MB-468; read-out: pGI50 (converted)): 1000 nM | CC50 (MDA-MB-468; [12]): > 100 µM | TGI (MDA-MB-468; read-out: pTGI (converted)): 5.5 µM | growth at 0.01 µM (A549 [3]): 97% | growth at 0.01 µM (NCI-H226): 97% | growth at 0.01 µM (M14): 97% | growth at 0.01 µM (OVCAR-4): 99% | growth at 0.01 µM (ACHN [4]): 91% | growth at 0.01 µM (CAKI-1): 98% | growth at 0.01 µM (UO-31): 91% | growth at 0.01 µM (PC-3 [5]): 94% | growth at 0.01 µM (DU-145): 103% | growth at 0.01 µM (Hs-578T): 95% | growth at 0.1 µM (SNB-75): 52% | growth at 0.1 µM (UACC-62): 93% | growth at 0.1 µM (786-0): 96% | growth at 0.1 µM (PC-3 [6]): 91% | growth at 1 µM (HL-60(TB)): 72% | growth at 1 µM (A549 [7]): 40% | growth at 1 µM (NCI-H460 [8]): 43% | growth at 1 µM (HCC 2998): 97% | growth at 1 µM (ACHN [9]): 45% | growth at 1 µM (MCF7 [10]): 50% | growth at 1 µM (BT-549): 92% | growth at 100 µM (NCI-H23): -50%
